Results on 15 molecules are retold here after patent US20250041329A1, “ACIDIC POLYMER COMPOSITIONS AND METHODS OF USE THEREOF” (NexEos Diagnostics, Inc., priority 2023, published 2025).

What is called IC50 is the point on the concentration scale where inhibition reaches its midpoint.

Like-named read-outs stand apart in the source and are kept apart here.

Data set [1] concerns the target T1, eMBP1 (Homo sapiens, UniProt P13727).
T1 construct: the pro-piece is removed during granule maturation in the eosinophilic leukocyte to convert pro-eMBP1 to eMBP1
T1 sequence (P13727 106-222): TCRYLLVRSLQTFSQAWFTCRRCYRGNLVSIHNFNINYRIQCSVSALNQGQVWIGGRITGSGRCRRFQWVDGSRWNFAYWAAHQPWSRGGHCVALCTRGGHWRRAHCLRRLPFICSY
The experiment in a line: eMBP1 neutralization assay. In kind it is cell-based. Conditions: for Hill Slope: eMBP1 neutralization curve fit; for IC50: eMBP1 neutralization potency. An excerpt:
Methods: The goal of the investigation is to design and test a peptide product to neutralize and, thus, mitigate toxic effects of eosinophil granule proteins as a treatment for eosinophil-related diseases. Specifically, one aim is to test various polymers of acidic amino acids (i.e., glutamate and aspartate) for their ability to neutralize eMBP1 and compare their potencies to those of the pro-piece of pro-eosinophil major basic protein 1 (pro-eMBP1) as well as various heparins, i.e., low molecular weight heparin, high molecular weight heparin, and unfractionated heparin.
Because pro-piece (PP) can neutralize the toxicity of eMBP1, we reasoned that a careful study of the carbohydrate and acidic peptide structures might elucidate the comparative functions of these domains and lead to an effective eMBP1 inhibitor. We obtained heparins and polymers of the acidic amino acids, glutamic and aspartic, and compared their potencies in the eMBP1 neutralization assay.

The conditions of data set [2]: cited from earlier work.
For data set [3], the target named is T1, eMBP1. The experiment in a line: Inhibition of eMBP1-stimulated histamine release from mast cells. In kind it is cell-based. Conditions: each inhibitor 50 μg/ml; eMBP1 10^−6 M; rat peritoneal mast cells; FIGS. 3A-3B. The method, then:
(§1) Methods: To determine if the compounds shown in Table 2 had the ability to inhibit eMBP1 in a different assay, the compounds were tested for their ability to inhibit eMBP1-stimulated histamine release from mast cells. Peritoneal cells from male rats were harvested, enriched by centrifugation through a cushion of 38% bovine serum albumin (with purities up to about 90%), and stimulated with eMBP1. As expected from previous work, eMBP1 at a concentration of 10^−6 M stimulated histamine release. Specifically, approximately 63% of total histamine was released (as determined by boiling the rat mast cells), and 84% was released in comparison to the amount released by compound 48/80 at 0.1 μg/ml.
In order to test inhibition of eMBP1-stimulated histamine release, each inhibitor was provided as a concentration of 50 μg/ml. Polyglutamic acid (Sigma P4761) in the molecular weight range of 15-50 kDa was utilized for testing.

The next data set concerns mast cells. The experiment in a line: Histamine release from mast cells stimulated with eMBP1. In kind it is cell-based, rat. The note with it: eMBP1 10^−6 M. The method, then:
as §1

The mark [4] stands for this setting: IC50 molar concentration, read-out: IC50.

In the case of `N[C@@H](CC(=O)O)C(=O)O` [monomer aspartic acid, aspartic acid, reference compound], the “eMBP1 inhibitory activity (in words)” value on eMBP1 [1] (eMBP1 neutralization, Table 2 / FIG. 1) is given as “devoid of eMBP1 inhibitory activity”. The pKa entry in data set [2] is on record as “about 1.92”.

On to Polyglutamic acid, for which the “inhibition of eMBP1-stimulated histamine release” value at eMBP1 [3] is “roughly comparably and more potently than unfractionated heparin and both glycosylated and unglycosylated pro-piece”.

Take α poly-D-glutamic acid: on eMBP1 [1], the “Hill Slope” value is recorded as 2.445 and the “IC50” value stood at 5.197 µg/mL. Besides, the 50% inhibitory concentration (IC50) at eMBP1 [1] (setting [4]) came to 157 nM.

For the molecule “α poly-L-aspartic acid [α poly-L-Asp 1.15 kDa]”, at eMBP1 [1], the “Hill Slope” value was determined as 2.808. For the same molecule, the “IC50” value against eMBP1 [1] was determined as 14.3 µg/mL; at eMBP1 [1] (setting [4]), 12400 nM.

Take “α poly-L-aspartic acid [α poly-L-Asp 5.75 kDa]”: the “Hill Slope” value at eMBP1 [1] is 2.929. Besides, the “IC50” value on eMBP1 [1] was 4.817 µg/mL; at eMBP1 [1] (setting [4]), 838 nM.

As for “α poly-L-aspartic acid [α poly-L-Asp 23 kDa]”, on eMBP1 [1], the “Hill Slope” value was 3.061 and the “IC50” value was determined as 4.301 µg/mL. At eMBP1 [1] (setting [4]), the IC50 stood at 187 nM.

“α poly-L-glutamic acid [α poly-L-Glu 2.6 kDa]”: at eMBP1 [1], the “Hill Slope” value worked out at 2.581 and the “IC50” value is 6.965 µg/mL. In addition, the IC50 on eMBP1 [1] (setting [4]) came to 2680 nM.

With “α poly-L-glutamic acid [α poly-L-Glu 7.5 kDa]”, at eMBP1 [1], the “Hill Slope” value amounted to 3.202 and the “IC50” value worked out at 6.158 µg/mL. Besides, the IC50 at eMBP1 [1] (setting [4]) worked out at 821 nM.

With “α poly-L-glutamic acid [α poly-L-Glu 9 kDa]”, on eMBP1 [1], the “Hill Slope” value is listed as 3.499. The “IC50” value amounted to 5.961 µg/mL against eMBP1 [1] and 662 nM at eMBP1 [1] (setting [4]).

With “α poly-L-glutamic acid [α poly-L-Glu 33 kDa]”, at eMBP1 [1], the “Hill Slope” value came out at 2.786 and the “IC50” value came out at 5.118 µg/mL. Further, the IC50 at eMBP1 [1] (setting [4]) was determined as 155 nM.

For “α poly-L-glutamic acid [α poly-L-Glu 120 kDa]”, on eMBP1 [1], the “Hill Slope” value worked out at 2.621 and the 50% inhibitory concentration (IC50) amounted to 4.525 µg/mL. Further, the IC50 at eMBP1 [1] (setting [4]) was 37.7 nM.

Take “γ polyglutamic acid [γ poly-Glu 1.2 kDa]”: at eMBP1 [1], the “Hill Slope” value was 2.177 and the “IC50” value was 19.6000 µg/mL. Moreover, the IC50 at eMBP1 [1] (setting [4]) worked out at 16300 nM.

For “γ polyglutamic acid [γ poly-Glu <10 kDa]”, at eMBP1 [1], the “Hill Slope” value is 2.534. In addition, the “IC50” value was 4.62 µg/mL against eMBP1 [1] and over 462 nM at eMBP1 [1] (setting [4]).

In the case of “γ polyglutamic acid [γ poly-Glu >700 kDa]”, at eMBP1 [1], the “Hill Slope” value is 11.5 and the “IC50” value was determined as 3.317 µg/mL. Further, on eMBP1 [1] (setting [4]), the IC50 is under 4.74 nM.

B1: eMBP1: eosinophil major basic protein-1, 13.8 kDa single polypeptide of the eosinophil granule core; stimulus in the assays (protein, UniProt P13727 17-222, looked up)
Bone marrow proteoglycan: LHLRSETSTFETPLGAKTLPEDEETPEQEMEETPCRELEEEEEWGSGSEDASKKDGAVESISVPDMVDKNLTCPEEEDTVKVVGIPGCQTCRYLLVRSLQTFSQAWFTCRRCYRGNLVSIHNFNINYRIQCSVSALNQGQVWIGGRITGSGRCRRFQWVDGSRWNFAYWAAHQPWSRGGHCVALCTRGGHWRRAHCLRRLPFICSY
modifications: Bone marrow proteoglycan
notes: eosinophil major basic protein-1, 13.8 kDa single polypeptide of the eosinophil granule core; stimulus in the assays
With B1, the “histamine released in comparison to the amount released by compound 48/80” value with mast cells (compound 48/80 at 0.1 μg/ml) turned out to be 84%. Further, the “histamine released, of total histamine” value in the data set with mast cells (total determined by boiling the rat mast cells) is “approximately 63%”.
